Test results reported in patent publication US8795705B2, “Dermatologic compositions comprising pyrrolidone-5-carboxylic acid and at least one entity chosen from citrulline, arginine and asparagine, and uses thereof in the treatment of atopic dermatitis” (Galderma Research & Development, priority 2007, dated 2014).
Where a name gives a salt, the structure may show the parent alone.

Assay: Assessment of hygroscopic properties: residual water weight of solutions as a function of time in a thermal container
Format: physicochemical
Conditions: 50° C., humidity 30%, each compound at 5% in water, after 120 minutes, versus water as negative control (FIG. 1)
Method: Each compound was dissolved in water (w/w) to obtain a 5% solution. To prepare a 5% two-amino acid solution, the L-arginine powder was dissolved directly in the 5% PCA sodium salt solution (w/w). To assess the hygroscopic properties of amino acids, we studied the residual water weight of different solutions as a function of time. We determined the weight of residual water in each solution after different times in an atmosphere in which temperature and humidity were controlled in a thermal container (Vötsch VC0018). The temperature used for our assays was initially set at 50° C. and later at 30° C. to approximate skin conditions more closely. Humidity was set at 30%. Using these parameters, we determined the weight of each solution before heating it and at different times during the heating. The heating lasted for 120 minutes at 50° C. and data was recorded from 45 to 120 minutes. At 30° C. the heating lasted for 135 minutes and data was recorded from 90 to 135 minutes. The residual weight expected at the end of the study which corresponds to the weight of the compound in the solution was calculated (for example, if the initial total weight for a 5% solution was 100 mg, the weight of the compound was 5 mg). The residual water weight of each solution was obtained by subtracting the expected weight of the compound from the total weight of the solution at different times. […]

SMILES	percentage of residual water weight (evaporation of the water contained in the solutions)
N=C(N)NCCC[C@H](N)C(=O)O [L-Arginine]	decreased the evaporation of the water
O=C1CCC(C(=O)O)N1 (centres unmarked) [PCA Na, 2-Pyrrolidone-5-carboxylic acid sodium salt]	decreased the evaporation of the water
